In ChEMBL document CHEMBL3272257, “Clonidine and related analogues. Quantitative correlations” (J Med Chem, 1976):

What was measured:
[1] = Retardation factor, deltaRm of the compound at pH 13 by TLC analysis; type: physicochemical
[2] = Octan-1-ol-aqueous buffer partition coefficient, log P of the compound at 10 to 20 mg at pH 7.4 by UV-spectroscopic analysis; type: physicochemical
[3] = Dissociation constant, pKa of the compound in water-ethyl alcohol; type: physicochemical
[4] = tested on: Rattus norvegicus; assay: Peripheral adrenergic activity in iv dosed pithed rat assessed as change in mean blood pressure; type: functional
[5] = organism: Rattus norvegicus; assay: Hypotensive activity in rat assessed as change in mean blood pressure relative to control; type: functional; design: concentration or dose not given beside the values
[6] = tested on: Rattus norvegicus; assay: Toxicity in iv dosed pithed rat; type: organism-based; details: in vivo

| Structure (SMILES) | deltaRm [1] | logD [2] | pKa [3] | pD2 [4] | Activity [5] [%] | LD50 [6] [µM] |
| --- | --- | --- | --- | --- | --- | --- |
| Cc1cccc(C)c1N=C1NCCN1 | 0.42 | -1.65 | 10.5 | 7.74 | <10 | – |
| c1ccc(NC2=NCCN2)cc1 | 0 | -1.8 | 10.4 | 5.84 | <10 | – |
| Clc1cc(Cl)c(N=C2NCCN2)c(Cl)c1 | 1 | – | 7.6 | 7.13 | 15 | – |
| Cc1cc(C)c(N=C2NCCN2)c(C)c1 | – | – | – | 7.8 | – | – |
| Brc1cccc(Br)c1N=C1NCCN1 | 0.61 | 1.15 | 7.95 | 7.28 | 15 | – |
| CCc1cccc(CC)c1NC1=NCCN1 | 0.95 | -0.84 | 10.6 | 7.61 | >10 | – |
| Fc1cccc(F)c1N=C1NCCN1 | 0.24 | 0.02 | 8.4 | 7.23 | <10 | – |
| Clc1cc(Cl)c(N=C2NCCN2)cc1Cl | 1.2 | 1.63 | 7.7 | – | – | – |
| CC(C)c1cccc(C(C)C)c1N=C1NCCN1 | 1.32 | -0.21 | 10.7 | 5.79 | <10 | – |
| COc1cc(C)ccc1N=C1NCCN1 | -0.03 | -1.56 | 10.6 | 6.58 | <10 | – |
| Cc1ccc(Cl)cc1N=C1NCCN1 | 0.72 | -0.3 | 9.5 | 7.64 | <10 | – |
| COc1ccc(OC)c(N=C2NCCN2)c1 | -0.42 | -1.78 | 10.2 | 6.98 | <10 | – |
| Brc1ccc(N=C2NCCN2)cc1 | 0.58 | -0.5 | 9.65 | 6.09 | <10 | – |
| COc1cc(OC)c(N=C2NCCN2)cc1Cl | -0.07 | -1.37 | 10.2 | 6.68 | <10 | – |
| CCc1ccccc1N=C1NCCN1 | – | – | – | 7.55 | – | – |
| COc1cc(C)c(N=C2NCCN2)c(C)c1 | – | – | – | – | – | 54 |
| Cc1cc(O)cc(C)c1N=C1NCCN1 | – | – | – | 7.51 | – | – |
| FC(F)(F)c1ccccc1N=C1NCCN1 | – | 0 | 8.8 | 6.13 | <10 | – |
| Oc1cc(Cl)c(N=C2NCCN2)c(Cl)c1 | – | -0.4 | 7.95 | 7.37 | <10 | – |
| Cc1cc(Cl)ccc1N=C1NCCN1 | 0.75 | -0.58 | 9.75 | 7.11 | <10 | – |
| Cc1cccc(Cl)c1N=C1NCCN1 | 0.45 | -0.4 | 9.2 | 7.74 | 15 | – |
| Cc1ccc(N=C2NCCN2)c(C)c1 | 0.43 | -1.46 | 10.7 | 7.74 | >10 | – |
| Clc1ccc(Cl)c(N=C2NCCN2)c1 | 0.71 | 0.95 | 8 | 7.65 | <10 | – |
| Clc1ccc(N=C2NCCN2)c(Cl)c1 | 0.76 | 0.69 | 8.65 | 6.71 | 15 | – |
| Clc1cccc(Cl)c1NC1=NCCN1 [CLONIDINE] | 0.38 | 0.83 | 8.05 | 7.66 | 15 | – |
| Cc1ccc(NC2=NCCN2)c(Cl)c1 [TOLONIDINE] | – | -0.28 | 9.55 | 7.08 | 15 | – |
